Patent US4315023A, “1-Phenethylimidazole derivatives” (Westwood Pharmaceuticals, Inc., priority 1980, dated 1982)

Columns and labels:
Trichophyton quinekeanum = Trichophyton quinekeanum induced skin infection in guinea pigs; format: in vivo, male guinea pigs; conditions: Table I; percentage drug concentration giving 50% of the score of untreated control; topical ointment
Method: In the guinea pig skin infection test, Trichophyton quinekeanum was cultured on a YGP agar slant at 28° C. for 10 days. Spores were collected from the mycelial mat and suspended in Sabouraud broth containing 2% of Tween 80. Groups of 3 male guinea pigs weighing between 400-500 g were used for each dose of test compound. The flanks of the animals were depilated and injured with sandpaper. The injured area was inoculated and rubbed with a glass rod on day 0 with 0.2 ml of the spore suspension containing 10^8 CFU/ml. The test compound was combined with a 1:1 mixture of polyethylene glycol 400 and 4000, and 0.3 ml of the ointment was applied to the infected area on day 1, 3 and 5. Lesions were examined on day 7 and scored as follows: 0, normal; 1, erythema; 2, erythema with whitish area; 3, erythema and numerous whitish areas; 4, erythema with confluent scaling and whitish pateches. A compound showing a mean score of 1.5 or less was considered active.
In the following Table I the antifungal activity of the test compound is reported as the EC50 value, which is the percentage drug concentration giving 50% of the score of untreated control animals. The EC50 was calculated by the method of least squares (K. Brounlee: Statistical Theory and Methodology in Science and Engineering, pages 345-349, Wiley Press, New York, 1965). In Table II a more detailed comparison on the in vivo antifungal activities of compound 3a and the isomeric prior art compound 2 are shown together with the data for compound 3b.
Treatment: 5 applications (day 0 to 4) against candida vaginal infection
and 3 applications (day 1, 3 and 5) against trichophyton skin infection

Staphylococcus aureus = experiment: in vitro antibacterial activity (MIC), S. aureus; format: cell-based; conditions: Nutrient Broth
Streptococcus pyogenes = experiment: in vitro antibacterial activity (MIC), S. pyogenes; format: cell-based; conditions: 50% Nutrient Broth + 5% human serum
Candida albicans = Candida albicans induced vaginal infection in mice; format: in vivo, female mice; conditions: Table I; percentage drug concentration giving 50% of the score of untreated control; intravaginal
Method: A majority of the compounds of formula 3 were evaluated together with the prior art compound of formula 2 in a Candida albicans induced vaginal infection in mice and a Trichophyton quinekeanum induced skin infection in guinea pigs. Sabouraud broth was inoculated with Candida albicans and the inoculum incubated for two days at 28° C. on a rotary shaker. Groups of four to five female mice weighing between 18-21 grams were infected intravaginally with a 0.01 ml portion of the cell suspension containing 10^8 cells/ml on day 0. The mice were treated subcutaneously with 0.5 mg of estradiol benzoate three days before and four days after infection. The test compounds were suspended in 1% carboxymethyl cellulose and 0.02 ml of the suspension was instilled intravaginally from day 0 (four hours after infection) to day 4 (5 applications). On day 7, vaginal exudate was taken by a thin glass rod and streaked on a YGP agar plate containing 100 mcg/ml of chloramphenicol. The plate was incubated for two days at 28° C. […] In the following Table I the antifungal activity of the test compound is reported as the EC50 value, which is the percentage drug concentration giving 50% of the score of untreated control animals. The EC50 was calculated by the method of least squares (K. Brounlee: Statistical Theory and Methodology in Science and Engineering, pages 345-349, Wiley Press, New York, 1965). In Table II a more detailed comparison on the in vivo antifungal activities of compound 3a and the isomeric prior art compound 2 are shown together with the data for compound 3b.

S. faecalis = experiment: in vitro antibacterial activity (MIC), S. faecalis; format: cell-based, Streptococcus faecalis; conditions: Enterococcus faecalis; Nutrient Broth
Streptococcus pneumoniae = experiment: in vitro antibacterial activity (MIC), S. pneumoniae; format: cell-based; conditions: 50% Nutrient Broth + 5% human serum

EC50, Trichophyton Skin Infection (Trichophyton quinekeanum): 0.047%
MIC (Staphylococcus aureus; Strain A): 0.5 µg/mL
MIC (Staphylococcus aureus; Strain B): 16 µg/mL
MIC (Staphylococcus aureus; Strain C): 0.5 µg/mL
MIC (Streptococcus pyogenes): 32 µg/mL
EC50, Candida Vaginal Infection (Candida albicans): 0.050%
MIC (S. faecalis): 2 µg/mL
MIC (Streptococcus pneumoniae): 63 µg/mL
SMILES: Clc1ccc(C(Cn2ccnc2)SCSCc2ccsc2Cl)c(Cl)c1.O=C(O)C(=O)O (centres unmarked) [Compound 3h, 1-[2-(2-Chloro-3-thienylmethylthiomethylthio)2-(2,4-dichlorophenyl)ethyl]-1H-imidazole hydrogen oxalate]
